Measurements: PubChem BioAssay (NCI)
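A five-concentration, 48-hour dose response in 96-well plates underlies each endpoint, interpolated linearly between surrounding concentrations. TGI marks complete inhibition of growth.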

Legend:
Experiment in all cases: NCI tumour cell line growth inhibition, 48 h
UACC-257 melanoma = tested on: UACC-257 melanoma
CAKI-1 renal = tested on: CAKI-1 renal
OVCAR-3 ovarian = tested on: OVCAR-3 ovarian
SK-MEL-5 melanoma = tested on: SK-MEL-5 melanoma
HOP-92 NSCLC = tested on: HOP-92 NSCLC
CCRF-CEM leukemia = tested on: CCRF-CEM leukemia
OVCAR-4 ovarian = tested on: OVCAR-4 ovarian
KM20L2 colon = tested on: KM20L2 colon
OVCAR-5 ovarian = tested on: OVCAR-5 ovarian
SNB-78 CNS = tested on: SNB-78 CNS
A498 renal = tested on: A498 renal
HT29 colon = tested on: HT29 colon
SN12C renal = tested on: SN12C renal
SF-539 CNS = tested on: SF-539 CNS
SW-620 colon = tested on: SW-620 colon
NCI-H226 lung = tested on: NCI-H226 lung
NCI-H522 lung = tested on: NCI-H522 lung
SK-OV-3 ovarian = tested on: SK-OV-3 ovarian
EKVX NSCLC = tested on: EKVX NSCLC
M19-MEL melanoma = tested on: M19-MEL melanoma
NCI-H23 lung = tested on: NCI-H23 lung
TK-10 renal = tested on: TK-10 renal
DMS 273 small cell lung = tested on: DMS 273 small cell lung
OVCAR-8 ovarian = tested on: OVCAR-8 ovarian
M14 melanoma = tested on: M14 melanoma
NCI-H460 lung = tested on: NCI-H460 lung
HOP-62 NSCLC = tested on: HOP-62 NSCLC
SK-MEL-2 melanoma = tested on: SK-MEL-2 melanoma
LXFL 529 NSCLC = tested on: LXFL 529 NSCLC
MALME-3M melanoma = tested on: MALME-3M melanoma
SF-268 CNS = tested on: SF-268 CNS
K-562 leukemia = tested on: K-562 leukemia
MOLT-4 leukemia = tested on: MOLT-4 leukemia
HCC-2998 colon = tested on: HCC-2998 colon
IGROV1 ovarian = tested on: IGROV1 ovarian
UO-31 renal = tested on: UO-31 renal
SK-MEL-28 melanoma = tested on: SK-MEL-28 melanoma
DMS 114 small cell lung = tested on: DMS 114 small cell lung
HOP-18 NSCLC = tested on: HOP-18 NSCLC
SF-295 CNS = tested on: SF-295 CNS
KM12 colon = tested on: KM12 colon
HL-60(TB) leukemia = tested on: HL-60(TB) leukemia
UACC-62 melanoma = tested on: UACC-62 melanoma
SNB-19 CNS = tested on: SNB-19 CNS
786-0 renal = tested on: 786-0 renal
SNB-75 CNS = tested on: SNB-75 CNS
DLD-1 colon = tested on: DLD-1 colon
HCT-15 colon = tested on: HCT-15 colon
LOX IMVI melanoma = tested on: LOX IMVI melanoma
COLO 205 colon = tested on: COLO 205 colon
U251 CNS = tested on: U251 CNS
ACHN renal = tested on: ACHN renal
SR leukemia = tested on: SR leukemia
RPMI-8226 leukemia = tested on: RPMI-8226 leukemia
RXF 393 renal = tested on: RXF 393 renal
A549 NSCLC = tested on: A549 NSCLC
HCT-116 colon = tested on: HCT-116 colon
XF 498 CNS = tested on: XF 498 CNS
RXF-631 renal = tested on: RXF-631 renal

SMILES: O=C(/C=C/c1ccco1)c1ccc(NCc2nc3ccccc3[nH]2)cc1
- TGI (UACC-257 melanoma): 23.2 µM
- TGI (CAKI-1 renal): 49.9 µM
- TGI (OVCAR-3 ovarian): 31.1 µM
- TGI (SK-MEL-5 melanoma): 28.6 µM
- TGI (HOP-92 NSCLC): 30.6 µM
- TGI (CCRF-CEM leukemia): 33.5 µM
- TGI (OVCAR-4 ovarian): 56.6 µM
- TGI (KM20L2 colon): 35.1 µM
- TGI (OVCAR-5 ovarian): 31.5 µM
- TGI (SNB-78 CNS): 58.4 µM
- TGI (A498 renal): 27.5 µM
- TGI (HT29 colon): 38.3 µM
- TGI (SN12C renal): 32 µM
- TGI (SF-539 CNS): 33.2 µM
- TGI (SW-620 colon): 34.3 µM
- TGI (NCI-H226 lung): 13.8 µM
- TGI (NCI-H522 lung): 21.4 µM
- TGI (SK-OV-3 ovarian): 43.3 µM
- TGI (EKVX NSCLC): 29.9 µM
- TGI (M19-MEL melanoma): 29.4 µM
- TGI (NCI-H23 lung): 27.5 µM
- TGI (TK-10 renal): 39.1 µM
- TGI (DMS 273 small cell lung): 35.8 µM
- TGI (OVCAR-8 ovarian): 47.8 µM
- TGI (M14 melanoma): 30.9 µM
- TGI (NCI-H460 lung): > 100 µM
- TGI (HOP-62 NSCLC): 35.6 µM
- TGI (SK-MEL-2 melanoma): 34.9 µM
- TGI (LXFL 529 NSCLC): 28.5 µM
- TGI (MALME-3M melanoma): 33.2 µM
- TGI (SF-268 CNS): 46.4 µM
- TGI (K-562 leukemia): 40.9 µM
- TGI (MOLT-4 leukemia): 31.9 µM
- TGI (HCC-2998 colon): 27.7 µM
- TGI (IGROV1 ovarian): 34.1 µM
- TGI (UO-31 renal): 27.3 µM
- TGI (SK-MEL-28 melanoma): 33.8 µM
- TGI (DMS 114 small cell lung): 26 µM
- TGI (HOP-18 NSCLC): 44.5 µM
- TGI (SF-295 CNS): 31.1 µM
- TGI (KM12 colon): 22.6 µM
- TGI (HL-60(TB) leukemia): 30.6 µM
- TGI (UACC-62 melanoma): 30.2 µM
- TGI (SNB-19 CNS): 30.6 µM
- TGI (786-0 renal): 32.5 µM
- TGI (SNB-75 CNS): 31.1 µM
- TGI (DLD-1 colon): 32.4 µM
- TGI (HCT-15 colon): 30.3 µM
- TGI (LOX IMVI melanoma): 29.8 µM
- TGI (COLO 205 colon): 26.7 µM
- TGI (U251 CNS): 23.8 µM
- TGI (ACHN renal): 38.4 µM
- TGI (SR leukemia): 37.7 µM

SMILES: O=c1cc(-c2c[nH]c3ccccc23)[nH]c2cc3c(cc12)OCO3
- TGI (RPMI-8226 leukemia): > 100 µM
- TGI (UACC-257 melanoma): > 100 µM
- TGI (RXF 393 renal): > 100 µM
- TGI (OVCAR-3 ovarian): > 100 µM
- TGI (SK-MEL-5 melanoma): > 100 µM
- TGI (CCRF-CEM leukemia): > 100 µM
- TGI (OVCAR-4 ovarian): > 100 µM
- TGI (KM20L2 colon): > 100 µM
- TGI (A498 renal): > 100 µM
- TGI (A549 NSCLC): > 100 µM
- TGI (HT29 colon): > 100 µM
- TGI (SN12C renal): > 100 µM
- TGI (SF-539 CNS): > 100 µM
- TGI (SW-620 colon): > 100 µM
- TGI (NCI-H226 lung): > 100 µM
- TGI (EKVX NSCLC): > 100 µM
- TGI (M19-MEL melanoma): > 100 µM
- TGI (NCI-H23 lung): > 100 µM
- TGI (TK-10 renal): > 100 µM
- TGI (DMS 273 small cell lung): > 100 µM
- TGI (M14 melanoma): > 100 µM
- TGI (NCI-H460 lung): > 100 µM
- TGI (HOP-62 NSCLC): > 100 µM
- TGI (SK-MEL-2 melanoma): > 100 µM
- TGI (LXFL 529 NSCLC): > 100 µM
- TGI (MALME-3M melanoma): > 100 µM
- TGI (SF-268 CNS): > 100 µM
- TGI (K-562 leukemia): > 100 µM
- TGI (MOLT-4 leukemia): > 100 µM
- TGI (HCC-2998 colon): > 100 µM
- TGI (HCT-116 colon): > 100 µM
- TGI (IGROV1 ovarian): > 100 µM
- TGI (UO-31 renal): > 100 µM
- TGI (SK-MEL-28 melanoma): > 100 µM
- TGI (DMS 114 small cell lung): > 100 µM
- TGI (SF-295 CNS): > 100 µM
- TGI (XF 498 CNS): > 100 µM
- TGI (HL-60(TB) leukemia): > 100 µM
- TGI (UACC-62 melanoma): > 100 µM
- TGI (SNB-19 CNS): > 100 µM
- TGI (786-0 renal): > 100 µM
- TGI (RXF-631 renal): > 100 µM
- TGI (SNB-75 CNS): 72.6 µM
- TGI (DLD-1 colon): > 100 µM
- TGI (HCT-15 colon): > 100 µM
- TGI (LOX IMVI melanoma): > 100 µM
- TGI (COLO 205 colon): > 100 µM
- TGI (U251 CNS): > 100 µM
- TGI (ACHN renal): > 100 µM
- TGI (SR leukemia): > 100 µM
